Experimental data as given in patent US12378243B2, “Quinoline compounds as inhibitors of KRAS” (Incyte Corporation, priority 2021, dated 2025).

Tests used:
Caco-2 cells = assay: Caco2 assay (permeability, A-B); format: in vitro ADME; conditions: Table 4; Papp absorptive direction (A-B), test compound 50 μM, 120 minutes at 37° C.
Summary of the method: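 Caco-2 monolayers grown 22-25 days on Transwells, used only at TEER ≥300 Ω·cm^2. Compound at 50 μM in HBSS added apically, receiver HBSS with 4% BSA; 120 min at 37 °C. LCMS quantification; Papp from receiver flux slope, membrane area and initial donor amount.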

KRAS G12V mutant = KRAS G12V mutant (Homo sapiens, UniProt P01116, G12V); assay: GDP-GTP exchange assay, KRAS G12V; format: biochemical; conditions: bodipy loaded KRAS G12V 2.5 nM; 3 hours incubation after adding GppNHp-SOS1 mixture; read-out: G12V_exchange
KRAS G12D = KRAS G12D (Homo sapiens, UniProt P01116, G12D); assay: GDP-GTP exchange assay, KRAS G12D; format: biochemical; conditions: bodipy-loaded KRAS G12D 2.5 nM, GppNHp 500 uM, SOS1 150 nM; 4 hours pre-incubation, 2 hours incubation; read-out: G12D_exchange
Summary of the method: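 Nucleotide exchange started with 1 mM GppNHp and 300 nM SOS1, then 2 h at ambient temperature. IC50 from four-parameter logistic fit with variable Hill slope.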

KRAS G12V mutant, sequence (P01116 1-188 isoform P01116-2 G12V): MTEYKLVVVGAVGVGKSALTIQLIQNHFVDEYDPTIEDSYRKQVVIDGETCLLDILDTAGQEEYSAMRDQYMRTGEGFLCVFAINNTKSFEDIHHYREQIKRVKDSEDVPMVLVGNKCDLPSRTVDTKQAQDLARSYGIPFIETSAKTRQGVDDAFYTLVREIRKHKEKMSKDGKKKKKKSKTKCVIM
KRAS G12D, sequence (P01116 1-188 isoform P01116-2 G12D): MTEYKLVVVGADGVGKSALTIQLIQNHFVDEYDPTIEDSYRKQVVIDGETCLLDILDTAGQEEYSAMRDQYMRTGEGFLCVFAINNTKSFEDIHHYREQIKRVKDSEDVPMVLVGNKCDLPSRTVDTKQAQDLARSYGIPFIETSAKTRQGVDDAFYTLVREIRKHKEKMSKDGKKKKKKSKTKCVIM

Caco-2 (Caco-2 cells)	IC50 (KRAS G12V mutant)	IC50 (KRAS G12D)	SMILES
+++ (a Caco-2 value of >1)	< 100 nM	< 100 nM	C[C@H](c1cc2c(-c3ccc(C(C)(C)O)nc3)nc3c(F)c(-c4cccc5ccc(F)cc45)c(CCC#N)cc3c2n1[C@H]1[C@H]2CN[C@@H]1C2)N1CCOCC1=O [Example 46, 3-(1-((1R,4R,5S)-2-Azabicyclo[2.1.1]hexan-5-yl)-6-fluoro-7-(7-fluoronaphthalen-1-yl)-4-(6-(2-hydroxypropan-2-yl)pyridin-3-yl)-2-((R)-1-(3-oxomorpholino)ethyl)-1H-pyrrolo[3,2-c]quinolin-8-yl)propanenitrile]
+++ (a Caco-2 value of >1)	< 100 nM	< 100 nM	Cc1cnc(-c2nc3c(F)c(-c4cccc5ccc(F)cc45)c(CCC#N)cc3c3c2cc([C@@H](C)N2CCOCC2=O)n3[C@H]2[C@H]3CN[C@@H]2C3)cn1 [Example 47, 3-(1-((1R,4R,5S)-2-Azabicyclo[2.1.1]hexan-5-yl)-6-fluoro-7-(7-fluoronaphthalen-1-yl)-4-(5-methylpyrazin-2-yl)-2-((R)-1-(3-oxomorpholino)ethyl)-1H-pyrrolo[3,2-c]quinolin-8-yl)propanenitrile]
++ (a Caco-2 value of >0.5 but ≤1)	< 100 nM	< 100 nM	COC(=O)N1[C@@H](c2cc3c(-c4ccc(C(=O)N(C)C)nc4)nc4c(F)c(-c5cccc(Cl)c5Cl)c(CCC#N)cc4c3n2[C@H]2[C@H]3CN[C@@H]2C3)C[C@H]2C[C@H]21 [Example 48, Methyl (1R,3R,5R)-3-(1-((1R,4R,5S)-2-azabicyclo[2.1.1]hexan-5-yl)-8-(2-cyanoethyl)-7-(2,3-dichlorophenyl)-4-(6-(dimethylcarbamoyl)pyridin-3-yl)-6-fluoro-1H-pyrrolo[3,2-c]quinolin-2-yl)-2-azabicyclo[3.1.0]hexane-2-carboxylate]
+++ (a Caco-2 value of >1)	< 100 nM	< 100 nM	Cc1nc2c(F)c(-c3cccc(Cl)c3Cl)c(CCC#N)cc2c2c1cc([C@H]1C[C@H]3C[C@H]3N1C(=O)C1CC1)n2[C@H]1[C@H]2CN[C@@H]1C2 [Example 49, 3-(1-((1R,4R,5S)-2-Azabicyclo[2.1.1]hexan-5-yl)-2-((1R,3R,5R)-2-(cyclopropanecarbonyl)-2-azabicyclo[3.1.0]hexan-3-yl)-7-(2,3-dichlorophenyl)-6-fluoro-4-methyl-1H-pyrrolo[3,2-c]quinolin-8-yl)propanenitrile]
+++ (a Caco-2 value of >1)	< 100 nM	< 100 nM	C[C@H](c1cc2c(-c3ccc(C(C)(C)O)nc3)nc3c(F)c(-c4cccc(Cl)c4Cl)c(CCC#N)cc3c2n1[C@H]1[C@H]2CN[C@@H]1C2)n1ccncc1=O [Example 50, 3-(1-((1R,4R,5S)-2-Azabicyclo[2.1.1]hexan-5-yl)-7-(2,3-dichlorophenyl)-6-fluoro-4-(6-(2-hydroxypropan-2-yl)pyridin-3-yl)-2-((R)-1-(2-oxopyrazin-1(2H)-yl)ethyl)-1H-pyrrolo[3,2-c]quinolin-8-yl)propanenitrile]
+++ (a Caco-2 value of >1)	< 100 nM	< 100 nM	COC(=O)N1C[C@@H](F)C[C@@H]1c1cc2c(-c3ccc(C(C)(C)O)nc3)nc3c(F)c(-c4cccc(Cl)c4Cl)c(CCC#N)cc3c2n1[C@H]1[C@H]2CN[C@@H]1C2 [Example 51, Methyl (2R,4S)-2-(1-((1R,4R,5S)-2-azabicyclo[2.1.1]hexan-5-yl)-8-(2-cyanoethyl)-7-(2,3-dichlorophenyl)-6-fluoro-4-(6-(2-hydroxypropan-2-yl)pyridin-3-yl)-1H-pyrrolo[3,2-c]quinolin-2-yl)-4-fluoropyrrolidine-1-carboxylate]
+++ (a Caco-2 value of >1)	< 100 nM	< 100 nM	COC(=O)N1[C@H](C)CC[C@@H]1c1cc2c(-c3ccc(C(C)(C)O)nc3)nc3c(F)c(-c4cccc(Cl)c4Cl)c(CCC#N)cc3c2n1[C@H]1[C@H]2CN[C@@H]1C2 [Example 52, Methyl (2R,5R)-2-(1-((1R,4R,5S)-2-azabicyclo[2.1.1]hexan-5-yl)-8-(2-cyanoethyl)-7-(2,3-dichlorophenyl)-6-fluoro-4-(6-(2-hydroxypropan-2-yl)pyridin-3-yl)-1H-pyrrolo[3,2-c]quinolin-2-yl)-5-methylpyrrolidine-1-carboxylate]
+++ (a Caco-2 value of >1)	< 100 nM	< 100 nM	COC(=O)N1CCC[C@@H]1c1c(Cl)c2c(-c3ccc(C(C)(C)O)nc3)nc3c(F)c(-c4cccc(Cl)c4Cl)c(CCC#N)cc3c2n1[C@H]1[C@H]2CN[C@@H]1C2 [Example 53, Methyl (2R)-2-(1-((1R,4R,5S)-2-azabicyclo[2.1.1]hexan-5-yl)-3-chloro-8-(2-cyanoethyl)-7-(2,3-dichlorophenyl)-6-fluoro-4-(6-(2-hydroxypropan-2-yl)pyridin-3-yl)-1H-pyrrolo[3,2-c]quinolin-2-yl)pyrrolidine-1-carboxylate]
+++ (a Caco-2 value of >1)	< 100 nM	< 100 nM	COC(=O)N[C@H](C)c1cc2c(C)nc3c(F)c(-c4cccc(Cl)c4Cl)c(CCC#N)cc3c2n1[C@H]1[C@H]2CN[C@@H]1C2 [Example 55, Methyl ((1R)-1-(1-((1R,4R,5S)-2-azabicyclo[2.1.1]hexan-5-yl)-8-(2-cyanoethyl)-7-(2,3-dichlorophenyl)-6-fluoro-4-methyl-1H-pyrrolo[3,2-c]quinolin-2-yl)ethyl)carbamate]
+++ (a Caco-2 value of >1)	< 100 nM	< 100 nM	Cc1nc2c(F)c(-c3cccc(Cl)c3Cl)c(CCC#N)cc2c2c1cc([C@@H](C)NC(=O)C(F)F)n2[C@H]1[C@H]2CN[C@@H]1C2 [Example 56, N-((1R)-1-(1-((1R,4R,5S)-2-Azabicyclo[2.1.1]hexan-5-yl)-8-(2-cyanoethyl)-7-(2,3-dichlorophenyl)-6-fluoro-4-methyl-1H-pyrrolo[3,2-c]quinolin-2-yl)ethyl)-2,2-difluoroacetamide]
+++ (a Caco-2 value of >1)	< 100 nM	< 100 nM	Cc1nc2c(F)c(-c3cccc(Cl)c3Cl)c(CCC#N)cc2c2c1cc([C@@H](C)NC(=O)[C@@H]1CCCO1)n2[C@H]1[C@H]2CN[C@@H]1C2 [Example 57, (2S)—N-((1R)-1-(1-((1R,4R,5S)-2-Azabicyclo[2.1.1]hexan-5-yl)-8-(2-cyanoethyl)-7-(2,3-dichlorophenyl)-6-fluoro-4-methyl-1H-pyrrolo[3,2-c]quinolin-2-yl)ethyl)tetrahydrofuran-2-carboxamide]
++ (a Caco-2 value of >0.5 but ≤1)	< 100 nM	< 100 nM	Cc1nc2c(F)c(-c3cccc(Cl)c3Cl)c(CCC#N)cc2c2c1cc([C@@H](C)NS(=O)(=O)C1CC1)n2[C@H]1[C@H]2CN[C@@H]1C2 [Example 58, N-((1R)-1-(1-((1R,4R,5S)-2-Azabicyclo[2.1.1]hexan-5-yl)-8-(2-cyanoethyl)-7-(2,3-dichlorophenyl)-6-fluoro-4-methyl-1H-pyrrolo[3,2-c]quinolin-2-yl)ethyl)cyclopropanesulfonamide]
+++ (a Caco-2 value of >1)	< 100 nM	< 100 nM	Cc1nc2c(F)c(-c3cccc(Cl)c3Cl)c(CCC#N)cc2c2c1cc([C@@H](C)NC(=O)c1cscn1)n2[C@H]1[C@H]2CN[C@@H]1C2 [Example 59, N-((1R)-1-(1-((1R,4R,5S)-2-Azabicyclo[2.1.1]hexan-5-yl)-8-(2-cyanoethyl)-7-(2,3-dichlorophenyl)-6-fluoro-4-methyl-1H-pyrrolo[3,2-c]quinolin-2-yl)ethyl)thiazole-4-carboxamide]
+++ (a Caco-2 value of >1)	100 to 1000 nM	< 100 nM	Cc1nc2c(F)c(-c3cccc(Cl)c3Cl)c(CCC#N)cc2c2c1cc([C@@H](C)N(C)C(=O)C1CC1)n2[C@H]1[C@H]2CN[C@@H]1C2 [Example 60, N-((1R)-1-(1-((1R,4R,5S)-2-Azabicyclo[2.1.1]hexan-5-yl)-8-(2-cyanoethyl)-7-(2,3-dichlorophenyl)-6-fluoro-4-methyl-1H-pyrrolo[3,2-c]quinolin-2-yl)ethyl)-N-methylcyclopropanecarboxamide]
++ (a Caco-2 value of >0.5 but ≤1)	< 100 nM	< 100 nM	CC(O)c1nc2c(F)c(-c3cccc(Cl)c3Cl)c(CCC#N)cc2c2c1cc([C@@H](C)NC(=O)C1(C)CC1)n2[C@H]1[C@H]2CN[C@@H]1C2 (stereo partly drawn) [Example 61, N-((1R)-1-(1-((1R,4R,5S)-2-Azabicyclo[2.1.1]hexan-5-yl)-8-(2-cyanoethyl)-7-(2,3-dichlorophenyl)-6-fluoro-4-(1-hydroxyethyl)-1H-pyrrolo[3,2-c]quinolin-2-yl)ethyl)-1-methylcyclopropane-1-carboxamide]
+++ (a Caco-2 value of >1)	< 100 nM	< 100 nM	CC(O)c1nc2c(F)c(-c3cccc(Cl)c3Cl)c(CCC#N)cc2c2c1cc([C@H]1C[C@H]3C[C@H]3N1C(=O)C1(C)CC1)n2[C@H]1[C@H]2CN[C@@H]1C2 (stereo partly drawn) [Example 62, 3-(1-((1R,4R,5S)-2-Azabicyclo[2.1.1]hexan-5-yl)-7-(2,3-dichlorophenyl)-6-fluoro-4-(1-hydroxyethyl)-2-((1R,3R,5R)-2-(1-methylcyclopropane-1-carbonyl)-2-azabicyclo[3.1.0]hexan-3-yl)-1H-pyrrolo[3,2-c]quinolin-8-yl)propanenitrile]
